Experimental data published in patent publication US20140357512A1, “HISTONE DEACETYLASE (HDAC) BIOMARKERS IN MULTIPLE MYELOMA” (priority 2013, published 2014).

Test system: human myeloma cell line MM.1S
Assay: SILAC acetylated-lysine peptide profiling, HDAC inhibitor vs DMSO (light/heavy ratio)
Format: cell-based
Text: An embodiment of the invention comprises utilizing the SILAC method in order to quantitate changes in protein expression between two or more populations of cells. The SILAC method is a technique based on mass spectrometry that detects differences in protein abundance among samples using non-radioactive isotopic labeling. The SILAC method is known in the art, and described in detail in Ong et al., “Stable Isotope Labeling by Amino Acids in Cell Culture, SILAC, as a Simple and Accurate Approach to Expression Proteomics”, Molecular & Cellular Proteomics, vol. 1, pp. 376-386 (2002), which is incorporated herein by reference in its entirety.
Briefly, the SILAC method involves growing two populations of cells in cell culture. The first population of cells is grown in growth media containing normal amino acids (“normal media”). The second population of cells is grown in media lacking a standard essential amino acid (such as lysine), but is then supplemented with a non-radioactive, isotopically labeled form of that essential amino acid (such as lysine labeled with ^13C atoms, rather than normal ^12C atoms), which is called “heavy media”. When the two populations of cells are each growing in the medium, they incorporate the amino acids into all of their proteins. The growth of cells maintained in the heavy media is no different from that in normal media. All peptides containing the heavy amino acids are heavier than their normal counterparts. The cells from each of the two populations of cells are lysed. The lysates from each of the two cell populations are then combined. The combined cell lysates are then analyzed by mass spectrometry. Pairs of chemically identical peptides of different stable isotope composition can be differentiated in a mass spectrometer due to their difference in mass. The ratio of peak intensities in the mass spectrum for such peptide pairs reflects the abundance ratio for the two proteins.
This example describes SILAC studies that were performed to compare the effects of three different HDAC inhibitors (Compound A, Compound B, and tubastatin A) to a control on a human multiple myeloma cell line. The HDAC inhibitors were also compared amongst themselves to determine differences in their effects.
A human myeloma cell line MM.1S was grown using either ^12C (light) or ^13C (heavy) lysine containing culture medium. The “heavy” cells were treated with DMSO as the control, and the “light” cells were treated with a single HDAC inhibitor at 37° C. for 6 hours. The heavy and light cells were lysed, and the lysates were mixed in 1:1 ratio and digested with the protease trypsin. The acetylated lysine containing peptides (due to the action of the HDAC inhibitor) in the digested peptide pool were captured by a non-specific anti-acetylated lysine antibody cocktail (the antibodies identify both light and heavy acetylated peptides), and subjected to mass spectrometry analysis in order to identify thousands of individual peptides.
Thousands of peptides were identified in pairs (^12C and ^13C) due to their known mass differences. The amino acid sequence and quantitative ratio (Light/Heavy) of a given peptide in two differentially treated cell lysates were then determined and annotated with their possible protein (gene) sources.
As stated above, three HDAC inhibitors (Compound A, Compound B, and Tubastatin A) were used. Thus, the SILAC method was performed three times, with a different HDAC inhibitor compared to a control each time. Accordingly, there are three pairs of quantitative data in the table below, i.e., Compound A:DMSO, Compound B:DMSO, and Tubastatin A:DMSO. A cut-off of 1.30 fold of change (increase or decrease) was then used to determine “changed” or “+” in the table, and any peptides with a fold of change less than 1.3 fold were determined to be “unchanged” or “0” in the table. Those peptides that were not identified were marked as “NA” in the table. […]

O=C(CCCCCCNC(=O)c1cnc(N(c2ccccc2)c2ccccc2)nc1)NO [Compound A, 2-(diphenylamino)-N-(7-(hydroxyamino)-7-oxoheptyl)pyrimidine-5-carboxamide]
light to heavy ratio (L/H ratio) of acetylated peptide […](ac)FLK (SEQ ID NO: 326) (Isoform 5 of Transcriptional regulator ATRX [812], ATRX, drug:DMSO): 0.00 log 2
light to heavy ratio (L/H ratio), log 2 scale, acetylated peptide YNDPIYVK(ac)LEK (SEQ ID NO: 764) (Isoform A of AP-1 complex subunit beta-1 [335], gene AP1B1, drug:DMSO): 0.93
light to heavy ratio (L/H ratio) of acetylated peptide K(ac)VLFTCFK (SEQ ID NO: 529) (Isoform Beta-2 of DNA topoisomerase 2-beta [749], gene TOP2B, inhibitor:DMSO): −0.42 log 2
light to heavy ratio (L/H ratio) of acetylated peptide K(ac)SSETLR (SEQ ID NO: 601) (Isoform CNPI of 23-cyclic-nucleotide 3-phosphodiesterase [177], gene CNP, inhibitor:DMSO): 0.46 log 2
light to heavy ratio (L/H ratio) of acetylated peptide MVAAAK(ac)YAR (SEQ ID NO: 324) (Isoform Heart of ATP synthase subunit gamma mitochondrial [55], ATP5C1, drug:DMSO): 0.00 log 2
light to heavy ratio (L/H ratio), log 2 scale, acetylated peptide VNK(ac)EVER (SEQ ID NO: 782) (Isoform Long of ES1 protein homolog mitochondrial [157], gene C21orf33, drug:DMSO): 1.00
light to heavy ratio (L/H ratio) of acetylated peptide EFHQAGK(ac)[…] (SEQ ID NO: 623) (Isoform Long of ES1 protein homolog mitochondrial [171], gene C21orf33, inhibitor:DMSO): 0.48 log 2
light to heavy ratio (L/H ratio) of acetylated peptide […](ac)R (SEQ ID NO: 588) (Isoform Long of Spectrin beta chain brain 1 [497], gene SPTBN1, inhibitor:DMSO): 0.44 log 2
light to heavy ratio (L/H ratio) of acetylated peptide NLHSK(ac)WLK (SEQ ID NO: 589) (Isoform Long of Spectrin beta chain brain 1 [1312], gene SPTBN1, inhibitor:DMSO): 0.44 log 2
light to heavy ratio (L/H ratio) of acetylated peptide VPNDK(ac)YYGAQTVR (SEQ ID NO: 625) (Isoform Mitochondrial of Fumarate hydratase mitochondrial [66], gene FH, inhibitor:DMSO): 0.49 log 2
light to heavy ratio (L/H ratio) of acetylated peptide MMVAGFK(ac)K (SEQ ID NO: 339) (Isoform Short of Heterogeneous nuclear ribonucleoprotein U [524], HNRNPU, drug:DMSO): 0.00 log 2
light to heavy ratio (L/H ratio) of acetylated peptide APQCLGK(ac)FIEIAAR (SEQ ID NO: 338) (Isoform Short of Heterogeneous nuclear ribonucleoprotein U [546], HNRNPU, drug:DMSO): 0.00 log 2
light to heavy ratio (L/H ratio) of acetylated peptide LLEQYK(ac)EESK (SEQ ID NO: 302) (Isoform Short of Heterogeneous nuclear ribonucleoprotein U [651], HNRNPU, drug:DMSO): 0.89 log 2
light to heavy ratio (L/H ratio) of acetylated peptide, log 2 scale (K(ac)[…] (SEQ ID NO: 246), Endoplasmin [270], HSP90B1): −0.54
light to heavy ratio (L/H ratio), log 2 scale, acetylated peptide (ac)[…](ac)GAGK (SEQ ID NO: 801) (KRR1 small subunit processome component homolog [11], gene KRR1, drug:DMSO): 1.00
light to heavy ratio (L/H ratio) of acetylated peptide, log 2 scale (KTPCGEGSK(ac)TWDR (SEQ ID NO: 245), 40S ribosomal protein S20 [75], SNORD54, RPS20): −0.69
light to heavy ratio (L/H ratio) of acetylated peptide IVADK(ac)DYSVTANSK (SEQ ID NO: 317) (L-lactate dehydrogenase B chain [82], LDHB, drug:DMSO): 1.00 log 2
L/H ratio of acetylated peptide (LAK(ac)LSDGVAVLK (SEQ ID NO: 484), 60 kDa heat shock protein mitochondrial [396], HSPD1): 0.61 log 2
L/H ratio of acetylated peptide (LALQK(ac)QLTK (SEQ ID NO: 495), Isoform 2 of Zinc finger protein 385C [103], ZNF385C): −1.00 log 2
L/H ratio of acetylated peptide IHLEIK(ac)QLNR (SEQ ID NO: 57) (LMAN1 [346], log 2 scale, drug vs DMSO): 0.00
L/H ratio of acetylated peptide (LMK(ac)YGDSLYR (SEQ ID NO: 499), Nucleolar GTP-binding protein 1 [118], GTPBP4): −0.78 log 2
L/H ratio of acetylated peptide LYK(ac)[…] (SEQ ID NO: 4) (LMNB1 [261], log 2 scale, drug vs DMSO): 0.00
L/H ratio of acetylated peptide […](ac)LENAR (SEQ ID NO: 58) (LMNB1 [271], log 2 scale, drug vs DMSO): 0.00
L/H ratio of acetylated peptide GFGYK(ac)GSCFHR (SEQ ID NO: 59) (LOC390956 [71], log 2 scale, drug vs DMSO): 0.00
L/H ratio of acetylated peptide (LTLDK(ac)LDVK (SEQ ID NO: 485), Phosphoglycerate kinase 1 [11], PGK1): 0.65 log 2
L/H ratio of acetylated peptide (LVDTGDK(ac)FR (SEQ ID NO: 478), Isoform Long of Spectrin beta chain brain 1 [1913], SPTBN1): −0.46 log 2
L/H ratio of acetylated peptide (LVSEK(ac)LASYQAAR (SEQ ID NO: 476), Isoform 2 of Myc proto-oncogene protein [163], MYC): −0.82 log 2
light to heavy ratio (L/H ratio) of acetylated peptide, log 2 scale (LYATMEK(ac)HK (SEQ ID NO: 251), Histone acetyltransferase p300 [1590], EP300): −0.43
light to heavy ratio (L/H ratio) of acetylated peptide AVLK(ac)[…] (SEQ ID NO: 262) (Laminin receptor-like protein LAMRL5 [89], SNORA6, RPSAP15, SNORA62, RPSA, drug:DMSO): 0.41 log 2
light to heavy ratio (L/H ratio) of acetylated peptide IHDVLCK(ac)LVEK (SEQ ID NO: 613) (Leucine-rich PPR motif-containing protein mitochondrial [864], gene LRPPRC, inhibitor:DMSO): 0.47 log 2
light to heavy ratio (L/H ratio) of acetylated peptide SYVSEK(ac)DVTSAK (SEQ ID NO: 628) (Leucine-rich PPR motif-containing protein mitochondrial [1332], gene LRPPRC, inhibitor:DMSO): 0.49 log 2
L/H ratio of acetylated peptide ICCQFDFK(ac)R (SEQ ID NO: 60) (MAN2A1 [373], log 2 scale, drug vs DMSO): 0.00
L/H ratio of acetylated peptide YLTNQK(ac)NSNSK(ac)NDR (SEQ ID NO: 17) (MEAF6 [69:74], log 2 scale, drug vs DMSO): 1.00
L/H ratio of acetylated peptide TLVLSDK(ac)HSPQK(ac)K (SEQ ID NO: 5) (MLL3 [2809:2814], log 2 scale, drug vs DMSO): 0.00
light to heavy ratio (L/H ratio) of acetylated peptide VHLSQK(ac)YK (SEQ ID NO: 343) (Matrin-3 [473], MATR3, SNHG4, drug:DMSO): 0.00 log 2
light to heavy ratio (L/H ratio) of acetylated peptide FLNK(ac)LAEER (SEQ ID NO: 342) (Matrin-3 [836], MATR3, SNHG4, drug:DMSO): 0.00 log 2
